In ChEMBL document CHEMBL4184149, “Discovery and process development of a novel TACE inhibitor for the topical treatment of psoriasis” (Bioorg Med Chem, 2018):
Activity calls are given as the source filed them. No cut-off for these calls is given here.

How the values were obtained:
[1] = system: TK6; test: Genotoxicity in p53-competent human TK6 cells in presence of Sprague-Dawley rat S9 fraction by GADD45alpha GFP reporter assay; format: toxicity, cell-based
[2] = target: T1, Disintegrin and metalloproteinase domain-containing protein 17 (Homo sapiens, UniProt P78536); test: Inhibition of recombinant human TACE catalytic domain using Mca-Pro-Leu-Ala-Gln-Ala-Val-Dpa-Arg-Ser-Ser-Ser-Arg-NH2 as substrate after 2 hrs by fluorescence assay
T1 sequence (P78536 whole entry, the tested form may be a part): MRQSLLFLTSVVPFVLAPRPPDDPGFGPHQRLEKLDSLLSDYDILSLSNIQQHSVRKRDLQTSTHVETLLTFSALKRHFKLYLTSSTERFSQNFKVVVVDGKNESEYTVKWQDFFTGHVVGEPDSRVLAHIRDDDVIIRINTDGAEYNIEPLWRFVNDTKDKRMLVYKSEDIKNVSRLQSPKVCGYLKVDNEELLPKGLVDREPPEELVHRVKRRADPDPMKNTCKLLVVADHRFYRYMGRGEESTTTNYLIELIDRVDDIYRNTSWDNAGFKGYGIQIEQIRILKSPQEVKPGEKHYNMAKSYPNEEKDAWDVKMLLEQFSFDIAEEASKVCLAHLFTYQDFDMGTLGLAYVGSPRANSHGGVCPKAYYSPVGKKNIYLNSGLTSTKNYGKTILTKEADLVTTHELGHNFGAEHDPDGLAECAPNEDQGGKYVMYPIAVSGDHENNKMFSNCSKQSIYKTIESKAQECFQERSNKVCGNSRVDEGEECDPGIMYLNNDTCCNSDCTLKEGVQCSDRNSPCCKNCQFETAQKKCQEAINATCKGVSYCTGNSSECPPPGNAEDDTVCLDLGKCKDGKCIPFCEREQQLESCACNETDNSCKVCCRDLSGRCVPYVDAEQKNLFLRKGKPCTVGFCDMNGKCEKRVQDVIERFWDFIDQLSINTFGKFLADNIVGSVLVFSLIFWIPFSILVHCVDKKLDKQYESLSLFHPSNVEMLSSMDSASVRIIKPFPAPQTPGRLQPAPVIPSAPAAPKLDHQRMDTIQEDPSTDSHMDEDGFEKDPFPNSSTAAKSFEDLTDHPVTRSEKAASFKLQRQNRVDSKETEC

[3] = Photoirritancy factor, ratio of EC50 for human neonatal keratinocytes under dark condition to EC50 for human neonatal keratinocytes under 5 J/cm2 UV light exposure; format: toxicity; conditions: read-out: Ratio EC50
[4] = Fraction unbound in human plasma at 5 uM after 4 hrs by LC-MS/MS analysis; format: ADME, cell-free
[5] = Half life in human neonatal keratinocytes at 1 uM by LC-MS/MS analysis; format: ADME, cell-based
[6] = target: T2, Matrilysin (Homo sapiens, UniProt P09237); test: Inhibition of MMP7 (unknown origin)
T2 sequence (P09237 whole entry): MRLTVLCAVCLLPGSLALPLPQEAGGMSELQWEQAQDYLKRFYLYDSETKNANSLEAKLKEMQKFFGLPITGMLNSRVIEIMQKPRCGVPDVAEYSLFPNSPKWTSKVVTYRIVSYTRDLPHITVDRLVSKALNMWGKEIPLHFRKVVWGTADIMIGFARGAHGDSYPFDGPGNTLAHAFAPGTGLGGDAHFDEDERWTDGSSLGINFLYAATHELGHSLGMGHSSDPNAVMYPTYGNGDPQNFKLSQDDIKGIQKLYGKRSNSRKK

[7] = target: Collagenase 3 (Homo sapiens, UniProt P45452); test: Inhibition of MMP13 (unknown origin)
[8] = system: Salmonella typhimurium; test: Mutagenicity in Salmonella typhimurium TA98 in presence of rat S9 fraction by Ames test; format: toxicity, organism-based; conditions: salmonella enterica subsp. enterica serovar typhimurium
[9] = target: T1, Disintegrin and metalloproteinase domain-containing protein 17; test: Inhibition of TACE in NHEK assessed as reduction in LPS/TPA-stimulated TNFalpha production preincubated for 1 hr followed by LPS/TPA stimulation for 24 hrs by HTRF assay
[10] = target: Matrix metalloproteinase-14 (Homo sapiens, UniProt P50281); test: Inhibition of MMP14 (unknown origin)
[11] = system: TK6; test: Genotoxicity in human TK6 cells in absence of rat S9 fraction by Giemsa staining based micronucleus assay; format: toxicity, cell-based
[12] = system: Salmonella typhimurium; test: Mutagenicity in Salmonella typhimurium TA100 in presence of rat S9 fraction by Ames test; format: toxicity, organism-based; conditions: salmonella enterica subsp. enterica serovar typhimurium
[13] = target: Stromelysin-1 (Homo sapiens, UniProt P08254); test: Inhibition of MMP3 (unknown origin)
Sequence of Stromelysin-1 (P08254 whole entry): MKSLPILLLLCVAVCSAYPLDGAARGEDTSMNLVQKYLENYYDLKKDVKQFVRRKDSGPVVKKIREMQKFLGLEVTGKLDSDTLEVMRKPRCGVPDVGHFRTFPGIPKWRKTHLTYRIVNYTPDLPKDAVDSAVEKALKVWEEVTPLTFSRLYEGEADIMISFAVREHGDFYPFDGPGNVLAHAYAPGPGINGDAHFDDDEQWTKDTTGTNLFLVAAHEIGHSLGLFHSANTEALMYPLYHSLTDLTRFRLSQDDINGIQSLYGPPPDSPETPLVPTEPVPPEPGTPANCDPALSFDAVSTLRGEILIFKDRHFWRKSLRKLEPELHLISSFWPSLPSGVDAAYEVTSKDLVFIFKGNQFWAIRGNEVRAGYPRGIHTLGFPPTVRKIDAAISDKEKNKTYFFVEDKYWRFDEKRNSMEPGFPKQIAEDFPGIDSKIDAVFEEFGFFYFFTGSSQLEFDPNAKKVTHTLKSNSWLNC

[14] = system: Salmonella typhimurium; test: Mutagenicity in Salmonella typhimurium TA98 in absence of rat S9 fraction by Ames test; format: toxicity, organism-based; conditions: salmonella enterica subsp. enterica serovar typhimurium
[15] = system: Mus musculus; test: Antiinflammatory activity in topically applied oxazolone-induced chronic skin inflammation hairless SKH1 mouse model assessed as decrease in epidermis thickening applied topically for 10 days in combination with oxazolone; format: functional, organism-based
[16] = system: Mus musculus; test: Antiinflammatory activity in topically applied oxazolone-induced chronic skin inflammation hairless SKH1 mouse model assessed as decrease in skin lesions applied topically for 10 days in combination with oxazolone; format: functional, organism-based
[17] = system: Mus musculus; test: Antiinflammatory activity in topically applied oxazolone-induced chronic skin inflammation hairless SKH1 mouse model assessed as decrease in TNFalpha secretion applied topically for 10 days in combination with oxazolone; format: functional, organism-based

Row | IC50 [2] [nM] | fraction unbound at 4 h, 5 µM [4] | half-life at 1 µM [5] [h] | IC50 [6] [nM] | IC50 [7] [nM] | IC50 [9] [nM] | IC50 [10] [nM] | IC50 [13] [nM] | SMILES | Activity [1] | selectivity ratio [3] | Activity [8] | Activity [11] | Activity [12] | Activity [14] | Activity [15] | Activity [16] | Activity [17]
1 | 7 | 0.003 | > 24 | 210 | 1200 | 20 | 4400 | 90 | Cc1cc(COc2ccc(S(=O)(=O)N(C)C3(C(=O)NO)CN(C(=O)CC(C)C)C3)cc2)c2ccccc2n1 | Non-Toxic | 1 | Non-Toxic | Non-Toxic | Non-Toxic | Non-Toxic |  |  | 
2 | 4 | 0.019 | > 24 | 180 | 1300 | 3 | 6500 | 90 | Cc1cc(COc2ccc(S(=O)(=O)N(C)C3(C(=O)NO)CN(C(=O)C(C)C)C3)cc2)c2ccccc2n1 | Non-Toxic | 1 | Non-Toxic | Non-Toxic | Non-Toxic | Non-Toxic | Active | Dose-dependent effect | Active
